{"source": "patent US8053627B2", "about": "“Methods for treating demyelination disorders” (University of Chicago, priority 2005, dated 2011)", "key": {"BIP, CHOP, p-eIF-2α": {"test_system": "BIP, CHOP, p-eIF-2α", "assay": "ER stress markers in corpus callosum during remyelination (real time PCR, Western blot)", "format": "in vivo", "conditions": "DOX− mice", "description": "Repression of remyelination by IFN-γ is associated with ER stress. […] To determine whether IFN-γ interferes with endoplasmic reticulum (ER) function in remyelinating oligodendrocytes, the expression of ER stress markers was monitored in the corpus callosum of mice expressing IFN-γ. The study was performed using the transgenic mice described in Example 1.\nThe level of mRNA encoding ER stress associated genes binding immunoglobulin protein/78 KDa glucose regulated protein (BIP/GRP78) and the CAATT enhancer-binding protein homologous protein/growth and DNA damage protein 153 (CHOP/GADD153), was determined using real time PCR, as described in Example 1 in the corpus callosum of the cuprizone treated mice of Example 1. The probes, sense and antisense primers that were used were: […]\nThe level of phosphorylated eIF-2α, which inhibits nucleotide exchange on the eIF-2 complex and attenuates most protein synthesis, was analyzed by Western blot, and the expression was colocalized by immunostaining CC1 antibodies as described above. Western blot analysis was performed as follows. The corpus callosum from 3 mice was rinsed in ice cold phosphate-buffered saline (PBS) and pooled, and immediately homogenized in 5 volumes of Triton X-100 buffer (20 mM HEPES pH 7.5, 150 mM NaCl, 1% Triton X-100, 10% glycerol, 1 mM EDTA, 10 mM tetrasodium pyrophosphate, 100 mM NaF, 17.5 mM β-glycerophosphate, 10 mM phenylmethylsulfonyl fluoride, 15 μg/ml aprotonin, and 6 μg/ml pepstatin A) using a motorized homogenizer. After incubation on ice for 15 min, the extracts were cleared by centrifugation at 14,000 rpm twice for 30 min each. The protein content of each extract was […] by protein assay (Bio-Rad). The extracts (40 μg) were separated by sodium dodecyl sulfate-polyacrylamide gel electrophoresis and transferred to nitrocellulose. […] The following primary antibodies were used: anti-eIF-2α (1:500; Santa Cruz, Santa Cruz, Calif.), anti-p-eIF-2α (1:1000, Cell signaling Technology), anti-CHOP (1:500; Santa Cruz) and anti-actin (1:1000; Sigma, St Louis, Mo.)."}, "[1]": {"test_system": "EAE-induced demyelination", "conditions": "for Mean of maximum clinical score (mean ± S.D.): 0–5 point scale; for Day of onset of disease (PID: postimmunization day): n = 25; for CD3 T cell infiltration in the lumbar spinal cord / EAE-induced demyelination: myelin, axons and oligodendrocytes in the lumbar spinal cord: PID 17"}, "[2]": {"test_system": "oligodendrocytes in adult mice", "assay": "IFN-γ expression in the CNS of adult mice (released from doxycycline at 4 weeks of age)", "format": "in vivo", "source_text": "Compared with the actively myelinating oligodendrocytes of young growing animals, oligodendrocytes in adult mice produce lower levels of membrane proteins and lipids, just enough to maintain homeostasis in the myelin structure (Morell, et al. (1999) Basic Neurochemistry: Molecular, Cellular, and Medical Aspects (Philadelphia, Pa.: Lippincott-Raven Publishers): 69-93). The ER of oligodendrocytes in adult animals may thus have more spare capacity to process increased protein load and as such may be less sensitive to disruptions of the protein secretory pathway. To examine this possibility, double transgenic mice were allowed to develop to maturity, at which time IFN-γ expression in the CNS was initiated."}, "[3]": {"conditions": "PERK+/+ background, listed as INF-γ"}, "[4]": {"conditions": "PERK+/+ background, peak of disease"}}, "note": "“And” between values parts separate entries of the source, which are not always exact repeats. Equal values may be shown once. Read-outs that look alike come from different tables or passages of the source."}
{"substance": "IFN-γ: pleotropic cytokine secreted by activated T lymphocytes and natural killer cells; delivered to the CNS by transgene or added as recombinant protein", "values": [{"measurement": "BIP mRNA increase vs control DOX+", "setting": "BIP, CHOP, p-eIF-2α", "value": "approximately 2 fold"}, {"measurement": "CHOP mRNA increase vs control DOX+", "setting": "BIP, CHOP, p-eIF-2α", "value": "approximately 2 fold"}, {"measurement": "CHOP protein elevation (Western blot)", "setting": "BIP, CHOP, p-eIF-2α", "value": "approximately 1.7 fold"}, {"measurement": "phosphorylated eIF-2α elevation (Western blot)", "setting": "BIP, CHOP, p-eIF-2α", "value": "approximately 1.8 fold"}, {"measurement": "Incidence of death", "setting": "[1]; DOX− double mice", "value": "0/25"}, {"measurement": "Mean of maximum clinical score (mean ± S.D.)", "setting": "[1]; DOX− double mice", "value": "1.63 ± 0.51"}, {"measurement": "MBP mRNA in the spinal cord vs age-matched naïve mice", "setting": "[1]; DOX− double mice, PID17", "value": "not significantly decreased"}, {"measurement": "Day of onset of disease (PID: postimmunization day)", "setting": "[1]; DOX− double mice", "value": "14.7 ± 1.4"}, {"measurement": "Incidence of hind limb paralysis", "setting": "[1]; DOX− double mice, listed as INF-γ", "value": "2 of 25 and 2/25"}, {"measurement": "Incidence of death", "setting": "[1]; DOX− triple mice (PERK+/−)", "value": "3/25"}, {"measurement": "Incidence of hind limb paralysis", "setting": "[1]; DOX− triple mice (PERK+/−)", "value": "18/25"}, {"measurement": "Mean of maximum clinical score (mean ± S.D.)", "setting": "[1]; DOX− triple mice (PERK+/−)", "value": "2.71 ± 1.11"}, {"measurement": "Day of onset of disease (PID: postimmunization day)", "setting": "[1]; DOX− triple mice (PERK+/−)", "value": "13.6 ± 0.8"}, {"measurement": "CD3 positive T cell infiltration in the spinal cord", "setting": "[1]; EAE onset", "value": "did not significantly affect"}, {"measurement": "CD11b positive monocyte infiltration in the spinal cord", "setting": "[1]; EAE onset", "value": "increased"}, {"measurement": "PERK-eIF2α pathway in oligodendrocytes (p-PERK, p-eIF2α colocalization with CC1)", "setting": "[1]; EAE onset", "value": "markedly activated"}, {"measurement": "expression of iNOs, TNF-a, IL-2, IL-12 and IL-10 in the spinal cord (real time PCR)", "setting": "[1]; EAE onset, PID14", "value": "strongly enhanced"}, {"measurement": "expression of iNOs, TNF-a, IL-2, IL-12 and IL-10 in the spinal cord (real time PCR)", "setting": "[1]; EAE onset, PID14, listed as INF-γ", "value": "increased"}, {"measurement": "CD3 T cell infiltration in the lumbar spinal cord", "setting": "[1]; PERK+/+ background", "value": "reduced"}, {"measurement": "EAE-induced demyelination: myelin, axons and oligodendrocytes in the lumbar spinal cord", "setting": "[1]; PERK+/+ background", "value": "protected"}, {"measurement": "CD3 T cell infiltration in the lumbar spinal cord", "setting": "[1]; [3]", "value": "lower"}, {"measurement": "EAE-induced demyelination: myelin, axons and oligodendrocytes in the lumbar spinal cord", "setting": "[1]; [3]", "value": "remained almost intact"}, {"measurement": "expression of IL-2 in spinal cord", "setting": "[1]; [4]", "value": "decreased"}, {"measurement": "expression of IL-12 in spinal cord", "setting": "[1]; [4]", "value": "decreased"}, {"measurement": "expression of IL-23 in spinal cord", "setting": "[1]; [4]", "value": "decreased"}, {"measurement": "expression of IL-2 and IL-5 in the spinal cord (real time PCR)", "setting": "[1]; PID14", "value": "did not affect"}, {"measurement": "amelioration of EAE", "setting": "[1]; mice heterozygous for the PERK mutation", "value": "did not ameliorate"}, {"measurement": "CD11b positive monocyte infiltration", "setting": "[1]; peak of disease", "value": "did not change"}, {"measurement": "expression of IL-5 in spinal cord", "setting": "[1]; peak of disease", "value": "did not significantly affect"}, {"measurement": "expression of IL-10 in spinal cord", "setting": "[1]; peak of disease", "value": "did not significantly affect"}, {"measurement": "expression of iNOs or TNF-γ", "setting": "[1]; peak of disease", "value": "did not significantly affect"}, {"measurement": "BIP and CHOP in the cerebellum", "setting": "[2]; 10-week-old double transgenic mice", "value": "modest induction"}, {"measurement": "myelin in the CNS (ultrastructural examination)", "setting": "[2]; 10-week-old, wild-type or PERK+/− background", "value": "normal myelin"}, {"measurement": "oligodendrocyte survival", "setting": "[2]; adult mice, also PERK+/− background", "value": "did not affect"}]}
